The source of these data is US10793892B2, “Method for detecting the presence of expanded spectrum β-lactamase-producing bacteria in a sample” (INSERM (INSTITUT NATIONAL DE LA SANTE ET DE LA RECHERCHE …, priority 2011, dated 2020).

For assay [1], the system named is M. morganii. Kind of assay: Susceptibility testing, MIC by Etest. It counts as cell-based, Morganella morganii. The following applies: M. morganii Wild-type, chromosome-encoded cephalosporinase, n=2. On the procedure:
(§1) Susceptibility testing was performed by determining MIC values using the Etest® (AB bioMérieux; Solna, Sweden) on Mueller-Hinton agar plates at 37° C. and results were recorded according to US guidelines (CLSI), as updated in 2012 (2). The breakpoints for cefotaxime are susceptible (S)≤1 and resistant (R)≥4 μg/ml, and for ceftazidime S≤4 and R≥16 μg/ml.

Assay [2] deals with S. enterica. The assay is described as follows: ESBL NDP test using cultured strains. It counts as biochemical, Salmonella enterica. Also on record: key: (+) and (−) referred to color change being, red to yellow or unchanged, respectively; (+) and (−) referred to color change being, red to yellow or unchanged, respectively. As for the experimental part:
(§2) Strains were isolated on Mueller-Hinton agar (Biorad, Marnes-la-Coquette, France) and incubated at 37° C. for 16 h to 24 h before performing the NDP rapid ESBL test as follows. One calibrated inoculated loop (10 μl) of the tested strain was resuspended in 150 μl of 20 mM Tris-HCl lysis buffer previously distributed in Microbead tubes (Ultraclean Microbial DNA isolation kit Bead Tubes, MO BIO Laboratories, Carlsbad, USA). Mechanical lysis of bacteria was performed by strong agitation of Microbead tubes using a vortex adapter (MO BIO Laboratories) for 30 min at room temperature. This bacterial suspension was centrifuged at 10,000×g at room temperature for 5 min. Thirty μl of the supernatant was mixed in a well of a 96-well tray with 100 μl of a 1 ml solution made of 3 mg of purified cefotaxime sodium salt (Sigma-Aldrich, Saint-Quentin-Fallavier, France) in a pH 7.8 phenol red solution. […]. The phenol red solution was made by taking 2 ml of a concentrated pH 8 phenol solution (made from a mixture of phenol red 0.5% in distilled water) to which 16.6 ml of distilled water was added. The pH value was then adjusted to a 7.8 value by adding drops of a 1 N NaOH solution. Mixture of the phenol red solution and the enzymatic suspension being tested was incubated at 37° C. for 30 min. Similarly, culture extracts were analyzed in wells containing cefotaxime and tazobactam (4 mg/ml). […]

The subject of assay [3] is C. brakii. Kind of assay: Susceptibility testing, MIC by Etest. Type of assay: cell-based. The following applies: C. brakii Wild-type, chromosome-encoded cephalosporinase, n=1. As for the experimental part:
as §1

The subject of assay [4] is S. enterica. Kind of assay: Susceptibility testing, MIC by Etest. It counts as cell-based, Salmonella enterica. On the procedure: as §1
Assay [5] relates to C. freundii. The assay is described as follows: ESBL NDP test using spiked blood cultures. It counts as biochemical, Citrobacter freundii. Also on record: key: (+) and (−) referred to color change being, red to yellow or unchanged, respectively; (+) and (−) referred to color change being, red to yellow or unchanged, respectively. The following applies: C. freundii BG 1106 7767, Wild-type. As for the experimental part:
as §2, with “The phenol red solution was made by taking 2 ml of a concentrated pH 8 phenol solution (made from a mixture of phenol red 0.5% in distilled water) to which 16.6 ml of distilled water was added. The pH value was then adjusted to a 7.8 value by adding drops of a 1 N NaOH solution. Mixture of the phenol red solution and the enzymatic suspension being tested was incubated at 37° C. for 30 min.” left out
(§3) Rapid detection of ESBL producers was attempted from spiked blood cultures which positivity was assessed using the BactAlert blood culture system (bioMérieux). […] Spiked blood cultures were made of 1×10^3 CFU of each strain and incubated 24 to 48 h before a positivity of the blood culture was detected by the BactAlert system. […]

Assay [6] has as its system C. freundii. The assay is described as follows: Susceptibility testing, MIC by Etest. It counts as cell-based, Citrobacter freundii. As for the experimental part: as §1
In assay [7] the test system is M. morganii. The assay is described as follows: ESBL NDP test using spiked blood cultures. It counts as biochemical, Morganella morganii. Also on record: key: (+) and (−) referred to color change being, red to yellow or unchanged, respectively; (+) and (−) referred to color change being, red to yellow or unchanged, respectively. As for the experimental part:
as §2, with “The phenol red solution was made by taking 2 ml of a concentrated pH 8 phenol solution (made from a mixture of phenol red 0.5% in distilled water) to which 16.6 ml of distilled water was added. The pH value was then adjusted to a 7.8 value by adding drops of a 1 N NaOH solution. Mixture of the phenol red solution and the enzymatic suspension being tested was incubated at 37° C. for 30 min.” left out
as §3

Assay [8] relates to E. aerogenes. Kind of assay: ESBL NDP test using spiked blood cultures. It counts as biochemical, Enterobacter aerogenes. Also on record: key: (+) and (−) referred to color change being, red to yellow or unchanged, respectively; (+) and (−) referred to color change being, red to yellow or unchanged, respectively. On the procedure:
as §2, with “The phenol red solution was made by taking 2 ml of a concentrated pH 8 phenol solution (made from a mixture of phenol red 0.5% in distilled water) to which 16.6 ml of distilled water was added. The pH value was then adjusted to a 7.8 value by adding drops of a 1 N NaOH solution. Mixture of the phenol red solution and the enzymatic suspension being tested was incubated at 37° C. for 30 min.” left out
as §3

[9] abbreviates: S. enterica Wild-type, no resistance, n=1.

SMILES strings stand for the structures.

In the case of `CO/N=C(\C(=O)N[C@@H]1C(=O)N2C(C(=O)O)=C(COC(C)=O)CS[C@H]12)c1csc(N)n1` [CTX, cefotaxime], the MICs range in assay [1] is 0.03 to 0.75 µg/mL; in assay [3], 0.12 µg/mL; in assay [4] (S. enterica CTX-M-1, n=1), over 16 µg/mL; in assay [4] (setting [9]), 0.05 µg/mL; in assay [6] (C. freundii CTX-M-15, n=3), over 16 µg/mL; in assay [6] (C. freundii TEM-3, n=1), over 16 µg/mL. In assay [6] (C. freundii Wild-type, chromosome-encoded cephalosporinase, n=1), this molecule came in with an MICs range of 0.12 µg/mL. For the same molecule, the “Test (color change)” value in assay [2] (S. enterica CTX-M-1, n=1) is “+”; in assay [2] (setting [9]), “−”. The “ESBL NDP Test from: Blood culture” value in assay [5] is “−”; in assay [7] (M. morganii BG 1106 5902, Wild-type), “−”; in assay [7] (M. morganii BG 1117 0617, Wild-type) it was “−”; in assay [8] (E. aerogenes BN 1113 0225, Wild-type), “−”; in assay [8] (E. aerogenes E2O15, TEM-121), “+”.
